According to patent US20250019388A1, “STAT3 DEGRADERS AND USES THEREOF” (priority 2021, published 2025):

Tests used:
STAT3 [1] = target: T1, STAT3 (Homo sapiens, UniProt P40763); test: STAT3 degradation in human ALCL cell lines SU-DHL-1 and SUP-M2; format: cell-based; conditions: SU-DHL-1 and SUP-M2 cell lines
ALCL cell lines = test: Cellular phenotypic assays (GI50) in ALCL cell lines; format: cell-based; conditions: Homo sapiens; several ALCL cell lines
caspase 3/7 = test: Caspase 3/7 activity in ALCL lines; format: cell-based, human; conditions: at similar concentrations
SU-DHL-1 cell line = test: Washout experiments in the SU-DHL-1 cell line; format: cell-based, human
SU-DHL-1 xenografts = test: Antitumor activity in SU-DHL-1 cell-line xenograft model; format: in vivo, NOD SCID mice
Method: (§1) The antitumor efficacy of Compound A ammonium hydrogen salt was evaluated in immunocompromised mice implanted with human ALCL cell lines SU-DHL-1 and SUP-M2. Protocols for testing STAT3 degraders in human cell line xenograft models can be found, for example, in WO 2020/206424, incorporated herein by reference.
(§2) The antitumor activity of Compound A ammonium hydrogen salt was evaluated in a human SU-DHL-1 cell-line xenograft model established in NOD SCID female mice. Tumor bearing mice (n=5/group) were administered either 0 (vehicle; PBS), 5, 10, 15, or 45 mg/kg Compound A once weekly (QW; Days 0, 7, and 14) or 0 (vehicle; PBS), 10, or 30 mg/kg Compound A once every two weeks (Q2W; Days 0 and 14). Animals administered Compound A QW were monitored until Day 25 post first dose and those administered Compound A Q2W were monitored until Day 71 post first dose.

[2] = Body weight in SU-DHL-1 xenograft study; format: in vivo, NOD SCID mice; conditions: IV route, SU-DHL-1 study
Method: as §2

SUP-M2 xenografts = test: Antitumor activity in SUP-M2 cell-line xenograft model; format: in vivo, NOD SCID mice; conditions: for tumor regression: 2 day on/5 days off
Method: as §1
(§3) The antitumor activity of Compound A ammonium hydrogen salt was evaluated in a human SUP-M2 cell-line xenograft model established in NOD SCID female mice. Tumor bearing mice (n=5/group) were administered either 0 (vehicle; PBS), 10, 20, or 30 mg/kg Compound A QW (Days 0, 7, and 14), 10 or 20 mg/kg Compound A on a 2 days on/5 days off schedule (Days 0, 1, 7, 8, 14, and 15), or 0 (vehicle; PBS), 20, or 40 mg/kg Compound A Q2W (Days 0 and 14). Animals administered Compound A QW or 2 on/5 off were monitored until Day 25 post first dose, and those administered Compound A Q2W were monitored until Day 52 post first dose.

[3] = Body weight in SUP-M2 xenograft study; format: in vivo, NOD SCID mice; conditions: IV route
Method: as §3

STAT3 [4] = test: STAT3 degradation potency in hepatocytes; format: cell-based; conditions: across human, rat, and dog
STAT3 [5] = target: T2, STAT3 (Rattus norvegicus, UniProt P52631); test: PK/PD study in rats, STAT3 degradation in tissues; format: in vivo; conditions: IV administration
T2 construct: from tissue
T2 sequence (P52631 whole entry): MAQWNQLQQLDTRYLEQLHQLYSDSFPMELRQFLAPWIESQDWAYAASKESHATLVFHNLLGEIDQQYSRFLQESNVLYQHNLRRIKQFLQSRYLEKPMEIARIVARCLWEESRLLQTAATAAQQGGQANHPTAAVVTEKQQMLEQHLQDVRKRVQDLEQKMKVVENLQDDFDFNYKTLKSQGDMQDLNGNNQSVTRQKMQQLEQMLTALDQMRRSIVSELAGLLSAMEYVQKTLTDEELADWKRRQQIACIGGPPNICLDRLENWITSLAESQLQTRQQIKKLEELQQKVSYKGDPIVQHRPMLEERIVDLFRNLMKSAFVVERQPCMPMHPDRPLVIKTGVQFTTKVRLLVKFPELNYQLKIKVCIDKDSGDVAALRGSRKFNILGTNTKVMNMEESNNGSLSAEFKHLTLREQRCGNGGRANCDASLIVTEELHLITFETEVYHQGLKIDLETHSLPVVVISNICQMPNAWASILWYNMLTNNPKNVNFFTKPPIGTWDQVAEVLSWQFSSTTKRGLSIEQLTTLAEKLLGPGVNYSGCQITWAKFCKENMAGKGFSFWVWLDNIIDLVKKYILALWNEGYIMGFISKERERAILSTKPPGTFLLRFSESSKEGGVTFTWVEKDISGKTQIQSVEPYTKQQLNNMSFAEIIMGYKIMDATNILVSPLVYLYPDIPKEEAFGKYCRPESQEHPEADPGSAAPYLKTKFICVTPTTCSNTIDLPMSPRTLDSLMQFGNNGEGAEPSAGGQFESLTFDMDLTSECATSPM

[6] = system: other STAT family members or other cellular proteins; test: Proteome wide assessment in PBMC; format: cell-based
Aqueous solubility = format: physicochemical
Method: Compound A injection was manufactured as a frozen concentrated solution containing 10 mg/mL of free acid intended to be diluted with IV infusion vehicle. It has aqueous solubility greater than 10 mg/mL at pH 4.5 to 9.0 but less than 10 mg/mL at pH less than or equal to 3.

[7] = Phase 1 study, safety and tolerability; format: in vivo, human; conditions: patients, DL1
Method: Rationale: Targeted protein degraders represent a new therapeutic class of compounds that utilize the ubiquitin proteasome system to target the specific degradation of proteins. Compound A is a protein degrader that targets signal transducers and activators of transcription (STAT)3, a transcription factor that plays an important role in hematological malignancies such as lymphomas and in solid tumors. Compound A is administered via intravenous infusion (IV) at the dose levels defined in the protocol on Days 1, 8, 15, and 22 of each 28-day cycle.
Patients who provide informed consent and meet the eligibility criteria for the study will be enrolled and treated with Compound A IV on Days 1, 8, 15, and 22 of a 28-day cycle. Patients will remain on study treatment until disease progression, unacceptable toxicity, withdrawal of consent, any study-specific discontinuation criteria are met, or the Investigator determines that it is in the best interest of the patient to discontinue study treatment.
Phase 1a: This part aims to characterize the safety and tolerability of IV weekly doses of Compound A in sequential cohorts. […]

STAT3 [8] = target: T1, STAT3; test: STAT3 degradation in tumor, SU-DHL-1 tumor xenograft murine model; format: in vivo, mice; design: from tissue; host or cells: SU-DHL-1 xenograft tumour in immunocompromised mice; conditions: 10 mg/kg QW; observed for 48 hrs
STAT3 [9] = target: T1, STAT3; test: Phase 1 study, STAT3 degradation in blood (PBMCs); format: in vivo; design: Observed STAT3 degradation of 50-80% in PBMCs at Dose Level 1; from tissue; host or cells: blood / PBMCs of patients dosed IV with Compound A; conditions: patients
Text: Rationale: Targeted protein degraders represent a new therapeutic class of compounds that utilize the ubiquitin proteasome system to target the specific degradation of proteins.

T1 sequence (P40763 whole entry): as the sequence (P52631 whole entry) above, with D311E, D760E counted along it

CC(=O)N1CC[C@H]2CC[C@@H](C(=O)N[C@@H](CCC(N)=O)COc3cccc(CCCC(=O)N[C@H](C(=O)N4C[C@H](O)C[C@H]4C(=O)N[C@@H](C)c4ccc(-c5scnc5C)cc4)C(C)(C)C)c3Cl)N2C(=O)[C@@H](NC(=O)c2cc3cc(C(=O)P(=O)(O)O)ccc3[nH]2)C1 [Compound A, (2-(((5S,8S,10aR)-3-acetyl-8-(((S)-5-amino-1-(2-chloro-3-(4-(((S)-1-((2S,4R)-4-hydroxy-2-(((S)-1-(4-(4-methylthiazol-5-yl)phenyl)ethyl)carbamoyl)pyrrolidin-1-yl)-3,3-dimethyl-1-oxobutan-2-yl)amino)-4-oxobutyl)phenoxy)-5-oxopentan-2-yl)carbamoyl)-6-oxodecahydropyrrolo[1,2-a][1,5]diazocin-5-yl)carbamoyl)-1H-indole-5-carbonyl)phosphonic acid]
STAT3 degradation (concentration) (STAT3 [1]): ≤ 11.8 ± 2.3 nM | GI50 (ALCL cell lines): 8.1 to 57.4 nM | caspase 3/7 activity, a marker of apoptosis (caspase 3/7): induced caspase 3/7 activity | duration of sustained STAT3 degradation after which irreversible growth inhibition occurred (SU-DHL-1 cell line): approximately 48 hr | tumor growth inhibition (TGI) (SU-DHL-1 xenografts; 5 mg/kg QW IV): 79.9% | TGI (SU-DHL-1 xenografts; 10 mg/kg Q2W IV): 89.8% | tumor regression (SU-DHL-1 xenografts; 10 mg/kg QW IV): complete regression | tumor regression (SU-DHL-1 xenografts; 15 mg/kg QW IV): complete regressions | TGI (SU-DHL-1 xenografts; 30 mg/kg Q2W IV): 99.8% | tumor regression (SU-DHL-1 xenografts; 30 mg/kg Q2W IV, all animals): complete tumor regressions | tumor regression (SU-DHL-1 xenografts; 45 mg/kg QW IV): complete regressions | body weight change [2]: slight to moderate body weight increases | TGI (SUP-M2 xenografts; 10 mg/kg QW IV): 83.8% | tumor regression (SUP-M2 xenografts; 10 mg/kg): complete tumor regression in all animals | animals with complete tumor regression (SUP-M2 xenografts; 20 mg/kg Q2W): 4 of 5 | animals with complete tumor regression (SUP-M2 xenografts; 20 mg/kg QW IV): 4 of 5 | tumor regression (SUP-M2 xenografts; 20 mg/kg): complete tumor regression in all animals | animals with complete tumor regression (SUP-M2 xenografts; 30 mg/kg QW IV): 5 of 5 | animals with complete tumor regression (SUP-M2 xenografts; 40 mg/kg Q2W): 5 of 5 | body weight change [3]: little to slight body weight increases | degradation potency of STAT3 in hepatocytes (STAT3 [4]): comparable degradation potency | degradation of STAT3 protein in tissues (STAT3 [5]): significant degradation of STAT3 protein in multiple tissues | selectivity of degradation [6]: does not degrade other STAT family members or other cellular proteins | solubility (Aqueous solubility; aqueous buffer, pH 4.5 to 9.0): > 10000 µg/mL | solubility (Aqueous solubility; pH 3, aqueous buffer, pH less than or equal to 3): < 10000 µg/mL | safety and tolerability (DLTs, SAEs) [7]: safe and well-tolerated with no DLTs or SAEs | STAT3 degradation in tumor (STAT3 [8]): greater than 90% | time of maximal STAT3 degradation post infusion (STAT3 [9]; DL1, Cycle 1 weeks 1 & 2): 24 to 96 h | STAT3 degradation in PBMCs (STAT3 [9]; Dose Level 1): 50-80% | duration of target degradation (STAT3 [9]; first dose level): At least 72 h | maximum STAT3 knockdown in blood (STAT3 [9]; first dose level): up to 86% | mean maximum STAT3 degradation in blood (STAT3 [9]; first dose level (DL1, 0.05 mg/kg IV), following first 2 doses of Cycle 1): 66%
